Where no end group is shown, it is not given here. {C12NH2} = aliphatic C12 spacer ending in a primary amine, used to couple the probe to the polymer
Experiments:
[1] = biological target: T1, underivatized HRP (Armoracia rusticana, UniProt P00433); test: Streptavidin polymer coating on glass rods: nonspecific binding of underivatized HRP
T1 sequence (P00433 31-338): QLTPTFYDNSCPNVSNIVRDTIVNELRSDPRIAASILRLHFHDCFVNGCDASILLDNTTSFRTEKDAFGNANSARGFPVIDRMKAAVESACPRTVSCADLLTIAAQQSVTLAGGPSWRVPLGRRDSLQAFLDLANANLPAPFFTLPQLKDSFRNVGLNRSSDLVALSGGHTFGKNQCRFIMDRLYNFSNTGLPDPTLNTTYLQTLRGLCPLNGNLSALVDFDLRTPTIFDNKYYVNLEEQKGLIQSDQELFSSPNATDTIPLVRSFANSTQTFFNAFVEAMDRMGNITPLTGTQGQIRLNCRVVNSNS
Description: (§1) The organosilane primed glass rods were dipped into a solution of streptavidin polymer for 30 seconds. The glass rods were removed from the solution, allowed to air dry, and illuminated for 30 seconds with a Dymax lamp. Adsorption controls were prepared via the same protocol, except that they were not illuminated. Both type of coated rods were washed with PBS containing 0.05% Tween 20 to remove nonadherent streptavidin polymer.
(§2) Streptavidin is a receptor that binds strongly to biotin as its ligand. The activity of streptavidin polymer coating was evaluated by quantifying the binding of added biotin derivatized horseradish peroxidase (biotin-HRP, obtained from Pierce Chemical Company, Rockford, Ill.). The glass rods were incubated for one hour in a 9 μg/ml solution of biotin-HRP. The binding of underivatized HRP (added at 9 μg/mi) was evaluated as a control for nonspecific binding of HRP to the glass rods. The rods were then washed with PBS containing 0.05% Tween 20 to remove nonbound HRP, and the relative activity of bound HRP was evaluated with a TMB peroxidase substrate system (Kirkegaard and Perry Laboratory, Inc., Gaithersburg, Md.). HRP catalyzes the oxidation of TMB and produces a color that is quantitated spectrophotometrically at 405 nm. Each result is the average of 3 determinations.

[2] = test system: biotin derivatized horseradish peroxidase (biotin-HRP); test: Streptavidin polymer coating on glass rods: binding of biotin-HRP; conditions: for Absorbance of Biotin-HRP: glass rods
Description: as §1, §2

[3] = test system: Escherichia coli (ATCC No. 25922); type: cell-based; conditions: in solution
Description: (§3) Magainin is a cationic peptide antibiotic that was originally isolated from the skin of Xenopus laevis. It is active against a broad spectrum of pathogens and acts at the surface of the pathogens. The activity of the magainin polymer was evaluated by a standard solution assay, which determined the minimum inhibitory concentration (MIC) of magainin polymer that was required to prevent the growth of bacteria.

[4] = test system: Staphylococcus epidermidis (ATCC No. 12228); type: cell-based; conditions: in solution
Description: as §3

[5] = test system: Complementary detection probe; test: Hybridization of biotinylated detection probe to coated polypropylene microwells (SA-HRP, A655); type: binding; conditions: 50 fmole probe per well, n=3
Description: (§4) The DNA-polymer was applied to microplate wells (polypropylene plates from Corning Costar Corporation, Cambridge, Mass.) at 10 pmole (in 0.1 ml solution) per well and incubated for 10-30 minutes. The plates containing DNA polymer solutions were illuminated for 1.5 minutes with a Dymax lamp as described herein except that a filter was used that removes light of wavelengths shorter than 300 nm. A control consisted of oligoDNA capture probe (10 pmole in 0.1 ml 50 mM phosphate buffer, pH 8.5, 1 mM EDTA) that was added to wells, allowed to adsorb for 2.5 hr., and not illuminated. The plates were washed with phosphate buffered saline containing 0.05% Tween 20 in PBS to remove unbound DNA-polymer or control oligoDNA capture probe. […]
(§5) The binding of each detection probe was assayed by subsequently adding a conjugate of streptavidin and horseradish peroxidase (SA-HRP, available from Pierce, Rockford, Ill.) and measuring the activity of the bound HRP. […] The plates were then washed with 0.05% Tween 20 in PBS, followed by addition of peroxidase substrate (TMB Microwell Peroxidase substrate system from Kirkegarrd and Perry Laboratories, Gaithersburg, Md.) and measurement of absorbance at 655 nm on a microplate reader (model 3550, Bio-Rad Labs, Cambridge, Mass.). Since the polypropylene plates were opaque, the reacted substrate solutions were transferred to polystyrene plates to read the absorbance.

[6] = test system: Noncomplementary detection probe; test: as above; type: binding; conditions: 50 fmole probe per well, n=3
Description: as §4, §5

[7] = as obtained from Celsus Laboratories; cited from earlier work
[8] = test system: immunoglobulin G (IgG); test: Activity of protein A polymer coatings: binding and elution of IgG from rabbit serum; conditions: for Fold greater IgG on protein A coating: versus uncoated control
Description: Protein A is a bacterial protein that binds specifically to the Fc region of immunoglobulin G (IgG) molecules. The activity of the protein A coating on each type of membrane was evaluated by assaying for binding by added IgG. Uncoated membranes were used as controls. For this assay, 2 ml of rabbit serum was diluted 1:5 in PBS and perfused through the coated membranes at 2-3 ml/min. The membranes were then washed with PBS to remove unbound IgG. The bound IgG was then eluted with 0.1 M glycine in 2% acetic acid. The amount of eluted IgG was determined by measuring the absorbance of the eluant at 280 nm and using an extinction coefficient (ε280) of 1.4 ml/cm-mg to calculate the mg of eluted IgG. Also the IgG that eluted from each membrane type was evaluated for purity by reduced SDS PAGE analysis. With the biomaterials coated with protein A polymer, the eluted protein was greater than 90% light and heavy chains of IgG. In contrast, the major protein that eluted from uncoated controls was albumin.
Three discs of each type (PSO or RC) were placed in a MAC-25 holder and evaluated using this procedure.

[9] = biological target: T2, bovine thrombin (Bos taurus, UniProt P00735); test: Activities of hirudin and hirudin polymer in solution (thrombin inhibition, Chromozym TH); type: biochemical; conditions: per mg of hirudin
T2 construct: a known amount of bovine thrombin; purchased Sigma Chemical Co., St. Louis, Mo
Description: The specific activities of hirudin and hirudin polymer were determined by standard protocols provided by Transgene and are expressed as antithrombin units (ATU's) per mg of hirudin. One ATU is the amount of hirudin that is required to inhibit the proteolytic activity of one NIH unit of thrombin. For these assays, a known amount of bovine thrombin (175-350 NIH units/mg., from Sigma Chemical Co., St. Louis, Mo.) was preincubated with a series of dilutions of hirudin or hirudin polymer, and the remaining thrombin activity was determined with a chromogenic substrate, Chromozym TH (from Boehringer Mannheim Corp, Indianapolis, Ind.). The specific activities of hirudin assayed before and after incorporation into the hirudin polymer were 11,710 and 10,204 ATU/mg, respectively. Therefore incorporation of hirudin into the polymer produced only a 13% decrease in its activity.

[10] = biological target: T2, bovine thrombin; conditions: from Transgene Laboratories; cited from earlier work

streptavidin polymer: photoreactive polyacrylamide containing streptavidin ligands
Absorbance of HRP ([1]; adsorbed (nonilluminated)): 0.065 | Absorbance of HRP ([1]; covalent (photoimmobilized)): 0.056 | peroxidase activity of adsorbed, fold less than covalent ([2]; biotin-HRP added): 3.5 fold | Absorbance of Biotin-HRP ([2]; adsorbed (nonilluminated)): 0.285 | Absorbance of Biotin-HRP ([2]; covalent (photoimmobilized)): 1.005

magainin polymer: photoreactive polyacrylamide containing magainin ligand (SEQ ID NO:14) (GIGKFLHSAKKFGKAFVGEIMNSC; not fully specified (residue 24); printed as Gly Ile Gly Lys Phe Leu His Ser Ala Lys Lys Phe Gly Lys Ala Phe Val Gly Glu Ile Met Asn Ser Cys; also: in photoreactive polyacrylamide)
MIC [3]: 50 µg/mL | MIC [4]: 50 µg/mL

5′-GTCTGAGTCGGAGCCAGGGCGGCCGCCAACAGCAGGAGCA (DNA GTCTGAGTCGGAGCCAGGGCGGCCGCCAACAGCAGGAGCA; DNA, 5' {C12NH2}, backbone not given here; coupled via 5' amine to photoreactive NOS polymer) [oligo DNA capture probe]
Hybridization Signals (A655), Complementary detection probe [5]: 0.037 ± 0.005 | Hybridization Signals (A655), Noncomplementary detection probe [6]: 0.033 ± 0.001

heparin [Unbleached heparin]
heparin activity [7]: 152 units/mg

protein A polymer: photoreactive polyacrylamide containing recombinant staphylococcal protein A ligands
IgG eluted ([8]; Polysulfone membrane, average of 10 cycles): 0.680 mg/disc | Fold greater IgG on protein A coating ([8]; Polysulfone): 34 | IgG eluted ([8]; Regenerated cellulose membrane, average of 3 cycles): 0.383 mg/disc | Fold greater IgG on protein A coating ([8]; Regenerated cellulose): 64

hirudin
specific activity [9]: 11,710 ATU/mg | activity of recombinant hirudin as obtained [10]: 16,500±2000 ATU/mg

Reference: US6514734B1, “Polybifunctional reagent having a polymeric backbone and latent reactive moieties and bioactive groups” (Surmodics, Inc., priority 1997, dated 2003)
